Data reported in ChEMBL document CHEMBL3425430, “α-Substituted 2-(3-fluoro-4-methylsulfonamidophenyl)acetamides as potent TRPV1 antagonists” (Bioorg Med Chem Lett, 2015).
pIC50, pKi: −log10 of the molar value.

Each compound was assayed against T1, Transient receptor potential cation channel subfamily V member 1 (Homo sapiens, UniProt Q8NER1) (assay: Antagonist activity at human TRPV1 expressed in CHO cells assessed as inhibition of 45 degC heat-induced activation by FLIPR assay). Conditions: not given; call rule not given here.
T1 sequence (Q8NER1 whole entry): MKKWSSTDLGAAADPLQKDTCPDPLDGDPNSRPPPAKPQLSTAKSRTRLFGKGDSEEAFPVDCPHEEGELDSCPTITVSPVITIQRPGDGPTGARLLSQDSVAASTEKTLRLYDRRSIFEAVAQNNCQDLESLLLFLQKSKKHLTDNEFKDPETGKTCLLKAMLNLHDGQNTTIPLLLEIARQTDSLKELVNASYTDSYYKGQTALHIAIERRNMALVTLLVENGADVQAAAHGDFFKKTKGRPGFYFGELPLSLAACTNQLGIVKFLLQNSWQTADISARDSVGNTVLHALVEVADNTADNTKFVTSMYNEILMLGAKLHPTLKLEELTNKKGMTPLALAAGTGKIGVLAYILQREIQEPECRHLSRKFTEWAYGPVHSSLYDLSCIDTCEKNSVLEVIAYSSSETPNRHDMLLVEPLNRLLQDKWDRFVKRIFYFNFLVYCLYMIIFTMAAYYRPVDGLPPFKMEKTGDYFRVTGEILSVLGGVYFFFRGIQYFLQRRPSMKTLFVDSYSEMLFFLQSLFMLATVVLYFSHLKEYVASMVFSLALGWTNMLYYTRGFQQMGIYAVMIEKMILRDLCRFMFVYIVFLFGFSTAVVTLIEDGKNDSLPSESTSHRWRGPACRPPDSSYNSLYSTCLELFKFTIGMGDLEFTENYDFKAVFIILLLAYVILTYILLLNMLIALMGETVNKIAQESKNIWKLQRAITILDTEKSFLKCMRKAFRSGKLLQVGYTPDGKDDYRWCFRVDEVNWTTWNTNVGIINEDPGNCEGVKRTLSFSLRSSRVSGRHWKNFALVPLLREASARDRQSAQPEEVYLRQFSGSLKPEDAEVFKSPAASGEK
Format: cell-based
With `Cc1cccc(C(C(=O)NCc2ccc(C(F)(F)F)nc2N2CCC(C)CC2)c2ccc(NS(C)(=O)=O)c(F)c2)c1` (configuration not stated) the pIC50 was 7.44.

What follows are compounds tested against T1, Transient receptor potential cation channel subfamily V member 1 (assay: Antagonist activity at human TRPV1 expressed in CHO cells assessed as inhibition of N-arachidonoyl dopamine-induced activation by FLIPR assay). Conditions: not given.
Format: cell-based
Work on `Cc1cccc(C(C(=O)NCc2ccc(C(F)(F)F)nc2N2CCC(C)CC2)c2ccc(NS(C)(=O)=O)c(F)c2)c1` (configuration not stated) yielded a pKi of 9.60.

The compounds below were run against T1, Transient receptor potential cation channel subfamily V member 1 (assay: Antagonist activity at human TRPV1 expressed in CHO cells assessed as inhibition of capsaicin-induced activation by FLIPR assay). Conditions: cho.
Format: cell-based
In the case of `CS(=O)(=O)Nc1ccc(C(C(=O)NCc2ccc(C(F)(F)F)nc2SC2CCCCC2)C2CCCCC2)cc1F` (configuration not stated), the Ki was “Active”. In the case of `CCC(C)(C(=O)NCc1ccc(C(F)(F)F)nc1SC1CCCCC1)c1ccc(NS(C)(=O)=O)c(F)c1` (configuration not stated), the Ki was “Active”. With `CC1CCN(c2nc(C(F)(F)F)ccc2CNC(=O)C2(c3ccc(NS(C)(=O)=O)c(F)c3)CCCC2)CC1` the Ki was “Active”. With `CS(=O)(=O)Nc1ccc(C(Cc2ccccc2)C(=O)NCc2ccc(C(F)(F)F)nc2SC2CCCCC2)cc1F` (configuration not stated) the Ki was “Active”. In the case of `Cc1ccccc1C(C(=O)NCc1ccc(C(F)(F)F)nc1SC1CCCCC1)c1ccc(NS(C)(=O)=O)c(F)c1` (configuration not stated), the Ki was “Active”. With `Cc1ccc(CC(C(=O)NCc2ccc(C(F)(F)F)nc2N2CCC(C)CC2)c2ccc(NS(C)(=O)=O)c(F)c2)cc1` (configuration not stated) the Ki was “Active”. In the case of `CS(=O)(=O)Nc1ccc(C(Cc2ccc(F)cc2)C(=O)NCc2ccc(C(F)(F)F)nc2SC2CCCCC2)cc1F` (configuration not stated), the Ki was “Active”. `CS(=O)(=O)Nc1ccc(C2(C(=O)NCc3ccc(C(F)(F)F)nc3SC3CCCCC3)CCCC2)cc1F` was tested, and the Ki was “Active”.

Same assay, conditions: read-out: Ki
`CS(=O)(=O)Nc1ccc(C(C(=O)NCc2ccc(C(F)(F)F)nc2SC2CCCCC2)c2ccc(F)cc2)cc1F` (configuration not stated) showed a pKi of 7.42. Work on `CS(=O)(=O)Nc1ccc(C(C(=O)NCc2ccc(C(F)(F)F)nc2SC2CCCCC2)c2cccc(F)c2)cc1F` (configuration not stated) yielded a pKi of 7.31. For `CC1CCN(c2nc(C(F)(F)F)ccc2CNC(=O)C(Cc2ccccc2)c2ccc(NS(C)(=O)=O)c(F)c2)CC1` (configuration not stated), the pKi was 7.18. For `Cc1ccc(CC(C(=O)NCc2ccc(C(F)(F)F)nc2SC2CCCCC2)c2ccc(NS(C)(=O)=O)c(F)c2)cc1` (configuration not stated), the pKi was 7.39. With `Cc1ccc(C(C(=O)NCc2ccc(C(F)(F)F)nc2SC2CCCCC2)c2ccc(NS(C)(=O)=O)c(F)c2)cc1` (configuration not stated) the pKi was 8.12. `CC1CCN(c2nc(C(F)(F)F)ccc2CNC(=O)C(Cc2ccc(F)cc2)c2ccc(NS(C)(=O)=O)c(F)c2)CC1` (configuration not stated) was tested, and the pKi was 7.31. In the case of `Cc1cccc(C(C(=O)NCc2ccc(C(F)(F)F)nc2SC2CCCCC2)c2ccc(NS(C)(=O)=O)c(F)c2)c1` (configuration not stated), the pKi was 7.25.
